Values after ≈ are worked out from the molar mass of the structure shown. Read-outs that look alike come from different tables or passages of the source. Where a SMILES comes first, the peptide text is derived from it. The star is where a group is joined. Butanoyl(2,2-Me2) = CCC(C)(C)C(=O)*; Octanoyl(6-Me) = CCC(C)CCCCC(=O)*; Octanoyl = CCCCCCCC(=O)*
Tests used:
P. aeruginosa PAO1 = test: Time-kill curves (T3log); assay type: cell-based, Pseudomonas aeruginosa; conditions: MH, 37 °C with shaking, sampling 15 min to 6 h
Protocol: Time-kill studies were determined with glass tubes containing 10 ml of MH and different concentrations of the peptides (1, 2 and 4 times their MIC). Overnight cultures of P. aeruginosa PAO1 in TSB were adjusted at 5 × 10^7 CFU/ml turbidimetrically. This […] suspension was diluted in the MH tubes (1:50) for the time-kill assay. Tubes were incubated at 37 °C with shaking and samples were taken at the following time points after the beginning of incubation: 15 min, 30 min, 45 min, 1 h, 2 h, 4 h and 6 h. Each sample was serially diluted and plated. The lower limit of detection was 30 CFU/ml (1.5 × log10 CFU/ml).
To quantify the killing efficiency of the treatments, the parameter T3log (defined as the time required for the treatment to decrease 3 logs the initial inoculum) was used.

[1] = system: Pseudomonas aeruginosa PAO1 planktonic cells; assay type: cell-based
Protocol: Minimal inhibitory concentrations (MIC) of the peptides were determined in Mueller Hinton (MH) medium (Difco Laboratories, Detroit, MI, USA) by the broth microdilution assay following recommendations of the Clinical and Laboratory Standards Institute (CLSI, formerly NCCLS) with some modifications. Minimum bactericidal concentration (MBC) was defined as the concentration that caused a 3-log viability decrease in the initial inoculum and was calculated by colony counts on TSA plates incubated for 24 h at 37 °C.

[2] = system: P. aeruginosa PAO1 biofilms; test: Microplate biofilm assay (static flow regime), crystal violet removal activity; assay type: cell-based, Pseudomonas aeruginosa; conditions: 10XMIC, 24 h at 37 °C, biofilms grown in microplates (static conditions)
Protocol: In the microplate based assay, biofilms were grown with no fluid shear and the anti-biofilm activity of peptides was assessed as previously described with some modifications. Briefly, overnight cultures of P. aeruginosa PAO1 in TSB were adjusted at 5 × 10^7 CFU/ml turbidimetrically. This suspension was diluted in TSB (1:100) and 100 μl aliquots were added to the wells of a 96-well plate. After 24 h incubation at 37 °C, planktonic bacteria were removed by gently inverting the plate and then the biofilm-containing wells were washed with saline (0.85 % NaCl). The antimicrobial compound was serially diluted in Mueller Hinton (MH) at final concentrations higher than its planktonic MIC and 200 μl of each dilution was added to the wells. […]
The ability of the antimicrobials to remove the biofilm attached to the microplate well was determined by CV staining. […] The absorbance was measured at 595 nm.
(§1) Both the disinfection and removal activity of antimicrobials were expressed as “activity percentage”, a parameter that was calculated using the following formula: ActivityPercentage=C−B−T−B/C−B×100
(§2) Where C is the absorbance value of the control well with non-treated biofilm, T corresponds to the absorbance value of the well with treated biofilm and B is the blank well (i.e. with no biofilm).

[3] = system: P. aeruginosa PAO1 biofilms; assay type: cell-based, Pseudomonas aeruginosa
Protocol: In the microplate based assay, biofilms were grown with no fluid shear and the anti-biofilm activity of peptides was assessed as previously described with some modifications. Briefly, overnight cultures of P. aeruginosa PAO1 in TSB were adjusted at 5 × 10^7 CFU/ml turbidimetrically. This suspension was diluted in TSB (1:100) and 100 μl aliquots were added to the wells of a 96-well plate. After 24 h incubation at 37 °C, planktonic bacteria were removed by gently inverting the plate and then the biofilm-containing wells were washed with saline (0.85 % NaCl). The antimicrobial compound was serially diluted in Mueller Hinton (MH) at final concentrations higher than its planktonic MIC and 200 μl of each dilution was added to the wells. After 24 h incubation at 37 °C, biofilms were stained with either MTT (Sigma, St. Louis, MO, USA) or crystal violet (CV). As control, duplicate biofilms were incubated with MH containing no antimicrobial.
To quantify the disinfection (or bactericidal) activity of the antimicrobials on the biofilms, the MTT assay was used and performed as follows. After the treatment, the biofilms were rinsed with saline and 200 μl of a 0.5 mg/ml dilution of MTT in MH, was added to the wells. Incubation of biofilm with MTT was carried out during 4 h at 37 °C with no shaking. As a measure of cell viability, the conversion of MTT to a […] was determined by solubilizing the salt in 100 μl/well of DMSO and reading the absorbance of the resulting solution at 540 nm.
as §1, §2

HeLa cells = test: Cytotoxicity assay (MTT); assay type: cell-based; conditions: HeLa cells, 24 h, MTT; maximum concentration assayed 10 times their MIC
Protocol: Cytotoxicity was assayed on HeLa cells using the MTT [3-(4,5-dimethylthiazoyl-2-yl) 2,5 diphenyltetrazolium bromide protocol. Cells were grown in Dulbeccos’s modified Eagle’s medium (DMEM) and adjusted to a concentration of 10^5 cells/ml (MTT) in 96 wells polystyrene plates. Plates were incubated for 24 h at 37 °C in 5 % CO2, then supplemented with increasing amounts of peptides diluted in 2 mM Hepes pH 7.2, and incubation carried on for 24 h under the same conditions. After this time, filter-sterilized MTT was added in different plates. After 3 h, the content of the wells was gently solved and mixed with 100 μl of DMSO (MTT). Absorbance was measured at 540 nm. Compound cytotoxicity was expressed as LC50, the concentration of the compound that is lethal to 50 % of the cells.

| Structure (SMILES) | T3log at 1X MIC (time needed to decrease 3 logs the initial inoculum) (P. aeruginosa PAO1) [minutes] | T3log at 2X MIC (time needed to decrease 3 logs the initial inoculum) (P. aeruginosa PAO1) [minutes] | T3log at 4X MIC (time needed to decrease 3 logs the initial inoculum) (P. aeruginosa PAO1) [minutes] | MBC (minimal bactericidal concentration) ([1]; PAO1, 24 h) [µg/mL] | MIC (minimal inhibitory concentration) ([1]; PAO1, 24 h) [µg/mL] | Removal activity (biofilm mass removed, CV test) [2] | Disinfection activity (biofilm-forming bacteria killed, MTT test) ([3]; 10XMIC, 24 h at 37 °C, biofilms grown in microplates (static conditions)) | LC50 relative to the maximum concentration assayed (HeLa cells) [times their MIC] | MIC (minimal inhibitory concentration) ([1]; PAO1 planktonic cells, broth microdilution in Mueller Hinton medium, CLSI with some modifications) [µg/mL] | MBC (minimal bactericidal concentration) ([1]; PAO1 planktonic cells, concentration causing a 3-log viability decrease in the initial inoculum, colony counts on TSA, 24 h, 37 °C) [µg/mL] | Disinfection activity (biofilm-forming bacteria killed, MTT test) ([3]; PAO1, 24 h) [%] |
| --- | --- | --- | --- | --- | --- | --- | --- | --- | --- | --- | --- |
| CCC(C)CCCCC(=O)N[C@@H](Cc1ccccc1)C(=O)N[C@@H](Cc1c[nH]c2ccccc12)C(=O)N[C@@H](CCCNC(=N)N)C(=O)N[C@H](C(=O)N[C@@H](CCCNC(=N)N)C(=O)N[C@H](C(=O)N[C@@H](CCCNC(=N)N)C(=O)N[C@@H](CCCNC(=N)N)C(N)=O)[C@@H](C)CC)[C@@H](C)CC (stereo partly shown) [6-MO-LF11-215] ({Octanoyl(6-Me)}-FWRIRIRR-NH2) | 34 | 11 | 10 | 64 (≈ 47.7 µM) | 64 (≈ 47.7 µM) | – | – | – | – | – | – |
| CCC(C)CCCCC(=O)N1CCC[C@H]1C(=O)N[C@@H](Cc1ccccc1)C(=O)N[C@@H](Cc1c[nH]c2ccccc12)C(=O)N[C@@H](CCCNC(=N)N)C(=O)N[C@H](C(=O)N[C@@H](CCCNC(=N)N)C(=O)N[C@H](C(=O)N[C@@H](CCCNC(=N)N)C(=O)N[C@@H](CCCNC(=N)N)C(N)=O)[C@@H](C)CC)[C@@H](C)CC (stereo partly shown) [6-MO-LF11-322] ({Octanoyl(6-Me)}-PFWRIRIRR-NH2) | 41 | 39 | 19 | 64 (≈ 44.5 µM) | 64 (≈ 44.5 µM) | – | – | – | – | – | – |
| CC[C@H](C)[C@H](NC(=O)[C@H](CCCNC(=N)N)NC(=O)[C@@H](NC(=O)[C@H](CCCNC(=N)N)NC(=O)[C@H](Cc1c[nH]c2ccccc12)NC(=O)[C@H](Cc1ccccc1)NC(=O)C(C)(C)CC)[C@@H](C)CC)C(=O)N[C@@H](CCCNC(=N)N)C(=O)N[C@@H](CCCNC(=N)N)C(N)=O [DI-MB-LF11-215] ({Butanoyl(2,2-Me2)}-FWRIRIRR-NH2) | 17 | 11 | 10 | 16 (≈ 12.3 µM) | 16 (≈ 12.3 µM) | higher than 35% | medium-range disinfection activity | – | – | – | – |
| CC[C@H](C)[C@H](NC(=O)[C@H](CCCNC(=N)N)NC(=O)[C@@H](NC(=O)[C@H](CCCNC(=N)N)NC(=O)[C@H](Cc1c[nH]c2ccccc12)NC(=O)[C@@H](N)Cc1ccccc1)[C@@H](C)CC)C(=O)N[C@@H](CCCNC(=N)N)C(=O)N[C@@H](CCCNC(=N)N)C(N)=O [LF11-215] (H-FWRIRIRR-NH2) | – | – | – | – | – | – | – | > 10 | 64 (≈ 53.3 µM) | 128 (≈ 107 µM) | – |
| N=C(N)NCCC[C@H](NC(=O)[C@H](CCCNC(=N)N)NC(=O)[C@H](Cc1c[nH]c2ccccc12)NC(=O)[C@H](Cc1ccccc1)NC(=O)[C@H](CCCNC(=N)N)NC(=O)[C@H](CCCNC(=N)N)NC(=O)[C@H](Cc1c[nH]c2ccccc12)NC(=O)[C@@H](N)Cc1ccccc1)C(N)=O [LF11-227] (H-FWRRFWRR-NH2) | – | – | – | 64 (≈ 48.9 µM) | 64 (≈ 48.9 µM) | – | – | – | – | – | ~100 |
| CC[C@H](C)[C@H](NC(=O)[C@H](CCCNC(=N)N)NC(=O)[C@@H](NC(=O)[C@H](CCCNC(=N)N)NC(=O)[C@H](Cc1c[nH]c2ccccc12)NC(=O)[C@H](Cc1ccccc1)NC(=O)[C@@H]1CCCN1)[C@@H](C)CC)C(=O)N[C@@H](CCCNC(=N)N)C(=O)N[C@@H](CCCNC(=N)N)C(N)=O [LF11-322] (H-PFWRIRIRR-NH2) | – | – | – | 64 (≈ 49.3 µM) | 32 (≈ 24.6 µM) | – | – | – | – | – | – |
| CC[C@H](C)[C@H](NC(=O)[C@H](CCCNC(=N)N)NC(=O)[C@@H](NC(=O)[C@H](CCCNC(=N)N)NC(=O)[C@H](Cc1c[nH]c2ccccc12)NC(=O)[C@H](Cc1ccccc1)NC(=O)[C@H](Cc1ccccc1)NC(=O)[C@@H]1CCCN1)[C@@H](C)CC)C(=O)N[C@@H](CCCNC(=N)N)C(=O)N[C@@H](CCCNC(=N)N)C(N)=O [LF11-324] (H-PFFWRIRIRR-NH2) | – | – | – | 8 (≈ 5.53 µM) | 8 (≈ 5.53 µM) | – | – | – | – | – | – |
| CCCCCCCC(=O)N[C@@H](Cc1ccccc1)C(=O)N[C@@H](Cc1c[nH]c2ccccc12)C(=O)N[C@@H](CCCNC(=N)N)C(=O)N[C@H](C(=O)N[C@@H](CCCNC(=N)N)C(=O)N[C@H](C(=O)N[C@@H](CCCNC(=N)N)C(=O)N[C@@H](CCCNC(=N)N)C(N)=O)[C@@H](C)CC)[C@@H](C)CC [O-LF11-215] (Octanoyl-FWRIRIRR-NH2) | 17 | 21 | 10 | 32 (≈ 24.1 µM) | 32 (≈ 24.1 µM) | – | – | – | – | – | – |
| CCCCCCCC(=O)N[C@@H](Cc1ccccc1)C(=O)N[C@@H](Cc1c[nH]c2ccccc12)C(=O)N[C@@H](CCCNC(=N)N)C(=O)N[C@@H](CCCNC(=N)N)C(=O)N[C@@H](Cc1ccccc1)C(=O)N[C@@H](Cc1c[nH]c2ccccc12)C(=O)N[C@@H](CCCNC(=N)N)C(=O)N[C@@H](CCCNC(=N)N)C(N)=O [O-LF11-227] (Octanoyl-FWRRFWRR-NH2) | 10 | 10 | 10 | 128 (≈ 89.2 µM) | 128 (≈ 89.2 µM) | – | – | – | – | – | – |
